Measurements reported in the supplement of paper PMC10307832.

Assays:
Assay in all cases: relative viability (nuclei count vs DMSO), 5 days (fraction); higher = more cells survive
[1] = system: SK-LU-1
How it was run: (§1)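 Lung cancer cell lines in 1536-well plates got either a single drug or a fixed anchor-drug dose together with five library-drug doses (not always all listed) in √10 steps, by pin tool, on the day after seeding. Nuclei were counted after 5 days, and relative viability is the treated-to-vehicle ratio of nuclei counts. Values are medians of duplicate plates.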

[2] = system: LK-2
How it was run: as §1

[3] = system: RERF-LC-KJ
How it was run: as §1

[4] = system: UMC-11
How it was run: as §1

[5] = system: HCC-366
How it was run: as §1

[6] = system: NCI-H441
How it was run: as §1

[7] = system: NCI-H1437
How it was run: as §1

[8] = system: NCI-H1755
How it was run: as §1

[9] = system: NCI-H3122
How it was run: as §1

[10] = system: HOP-62
How it was run: as §1

[11] = system: NCI-H1734
How it was run: as §1

[12] = system: PC-3 [JPC-3]
How it was run: as §1

[13] = system: COR-L23
How it was run: as §1

[14] = system: NCI-H596
How it was run: as §1

[15] = system: NCI-H727
How it was run: as §1

[16] = system: NCI-H1563
How it was run: as §1

[17] = system: CAL-12T
How it was run: as §1

[18] = system: ABC-1
How it was run: as §1

[19] = system: NCI-H1651
How it was run: as §1

[20] = system: EMC-BAC-2
How it was run: as §1

[21] = system: NCI-H2347
How it was run: as §1

[22] = system: HARA
How it was run: as §1

How did the relative viability ([1]; first compound 0.2 µM) turn out when `Cc1csc(=NC2CCCCC2)n1/N=C/c1ccc(O)c(O)c1O` [MIM1] + C[C@]1(O)C[C@@H](c2nc(-c3ccc4ccc(-c5ccccc5)nc4c3)c3c(N)nccn32)C1 [Linsitinib] (partner 1 µM) was run?
The relative viability was 1.12.

And the relative viability ([1]; first compound 0.6325 µM)?
Its relative viability is 1.26.

And the relative viability ([1]; first compound 2 µM)?
Its relative viability is 1.29.

And the relative viability ([1]; first compound 6.325 µM)?
Its relative viability is 1.03.

And the relative viability ([1]; first compound 20 µM)?
The relative viability was 0.996.

What about the relative viability ([2]; first compound 0.2 µM) of the same compound?
Its relative viability is 0.801.

What about the relative viability ([2]; first compound 0.6325 µM) of the same compound?
The relative viability was 0.631.

What about the relative viability ([2]; first compound 2 µM) of the same compound?
The relative viability was 0.519.

And the relative viability ([2]; first compound 6.325 µM)?
Its relative viability is 0.566.

What about the relative viability ([2]; first compound 20 µM) of the same compound?
Its relative viability is 0.179.

And the relative viability ([3]; first compound 0.2 µM)?
Its relative viability is 0.81.

What about the relative viability ([3]; first compound 0.6325 µM) of the same compound?
The relative viability was 0.866.

And the relative viability ([3]; first compound 2 µM)?
The relative viability was 0.773.

What about the relative viability ([3]; first compound 6.325 µM) of the same compound?
The relative viability was 0.473.

And the relative viability ([3]; first compound 20 µM)?
The relative viability was 0.287.

And the relative viability ([4]; first compound 0.2 µM)?
Its relative viability is 1.02.

And the relative viability ([4]; first compound 0.6325 µM)?
Its relative viability is 1.01.

What about the relative viability ([4]; first compound 2 µM) of the same compound?
The relative viability was 1.02.

And the relative viability ([4]; first compound 6.325 µM)?
The relative viability was 0.66.

What about the relative viability ([4]; first compound 20 µM) of the same compound?
Its relative viability is 0.233.

And the relative viability ([5]; first compound 0.2 µM)?
Its relative viability is 0.511.

What about the relative viability ([5]; first compound 0.6325 µM) of the same compound?
The relative viability was 0.715.

What about the relative viability ([5]; first compound 2 µM) of the same compound?
Its relative viability is 0.565.

What about the relative viability ([5]; first compound 6.325 µM) of the same compound?
Its relative viability is 0.361.

And the relative viability ([5]; first compound 20 µM)?
The relative viability was 0.0221.

And the relative viability ([6]; first compound 0.2 µM)?
Its relative viability is 0.612.

What about the relative viability ([6]; first compound 0.6325 µM) of the same compound?
The relative viability was 0.528.

And the relative viability ([6]; first compound 2 µM)?
Its relative viability is 0.543.

What about the relative viability ([6]; first compound 6.325 µM) of the same compound?
The relative viability was 0.709.

And the relative viability ([6]; first compound 20 µM)?
The relative viability was 0.145.

And the relative viability ([7]; first compound 0.2 µM)?
Its relative viability is 0.967.

And the relative viability ([7]; first compound 0.6325 µM)?
Its relative viability is 0.985.

What about the relative viability ([7]; first compound 2 µM) of the same compound?
Its relative viability is 1.05.

And the relative viability ([7]; first compound 6.325 µM)?
The relative viability was 0.507.

What about the relative viability ([7]; first compound 20 µM) of the same compound?
Its relative viability is 0.151.

What about the relative viability ([8]; first compound 0.2 µM) of the same compound?
The relative viability was 1.02.

What about the relative viability ([8]; first compound 0.6325 µM) of the same compound?
Its relative viability is 0.996.

What about the relative viability ([8]; first compound 2 µM) of the same compound?
Its relative viability is 1.03.

And the relative viability ([8]; first compound 6.325 µM)?
Its relative viability is 0.71.

What about the relative viability ([8]; first compound 20 µM) of the same compound?
The relative viability was 0.724.

And the relative viability ([9]; first compound 0.2 µM)?
Its relative viability is 0.959.

What about the relative viability ([9]; first compound 0.6325 µM) of the same compound?
Its relative viability is 1.08.

What about the relative viability ([9]; first compound 2 µM) of the same compound?
Its relative viability is 1.12.

And the relative viability ([9]; first compound 6.325 µM)?
Its relative viability is 0.926.

And the relative viability ([9]; first compound 20 µM)?
Its relative viability is 0.396.

What about the relative viability ([10]; first compound 0.2 µM) of the same compound?
Its relative viability is 0.977.

What about the relative viability ([10]; first compound 0.6325 µM) of the same compound?
Its relative viability is 1.04.

And the relative viability ([10]; first compound 2 µM)?
Its relative viability is 0.905.

What about the relative viability ([10]; first compound 6.325 µM) of the same compound?
Its relative viability is 0.658.

And the relative viability ([10]; first compound 20 µM)?
Its relative viability is 0.936.

What about the relative viability ([11]; first compound 0.2 µM) of the same compound?
Its relative viability is 0.829.

And the relative viability ([11]; first compound 0.6325 µM)?
The relative viability was 1.01.

What about the relative viability ([11]; first compound 2 µM) of the same compound?
The relative viability was 0.853.

What about the relative viability ([11]; first compound 6.325 µM) of the same compound?
The relative viability was 0.754.

And the relative viability ([11]; first compound 20 µM)?
The relative viability was 0.422.

What about the relative viability ([12]; first compound 0.2 µM) of the same compound?
Its relative viability is 0.946.

And the relative viability ([12]; first compound 0.6325 µM)?
Its relative viability is 0.952.

And the relative viability ([12]; first compound 2 µM)?
Its relative viability is 1.

What about the relative viability ([12]; first compound 6.325 µM) of the same compound?
The relative viability was 0.805.

And the relative viability ([12]; first compound 20 µM)?
Its relative viability is 0.845.

What about the relative viability ([13]; first compound 0.2 µM) of the same compound?
The relative viability was 0.77.

And the relative viability ([13]; first compound 0.6325 µM)?
Its relative viability is 1.12.

What about the relative viability ([13]; first compound 2 µM) of the same compound?
The relative viability was 1.01.

What about the relative viability ([13]; first compound 6.325 µM) of the same compound?
The relative viability was 0.813.

What about the relative viability ([13]; first compound 20 µM) of the same compound?
Its relative viability is 0.498.

And the relative viability ([14]; first compound 0.2 µM)?
Its relative viability is 0.989.

What about the relative viability ([14]; first compound 0.6325 µM) of the same compound?
The relative viability was 0.989.

And the relative viability ([14]; first compound 2 µM)?
Its relative viability is 0.991.

And the relative viability ([14]; first compound 6.325 µM)?
The relative viability was 0.857.

What about the relative viability ([14]; first compound 20 µM) of the same compound?
Its relative viability is 0.871.

What about the relative viability ([15]; first compound 0.2 µM) of the same compound?
Its relative viability is 0.311.

And the relative viability ([15]; first compound 0.6325 µM)?
The relative viability was 0.284.

And the relative viability ([15]; first compound 2 µM)?
The relative viability was 0.276.

And the relative viability ([15]; first compound 6.325 µM)?
Its relative viability is 0.278.

What about the relative viability ([15]; first compound 20 µM) of the same compound?
The relative viability was 0.266.

What about the relative viability ([16]; first compound 0.2 µM) of the same compound?
The relative viability was 1.13.

And the relative viability ([16]; first compound 0.6325 µM)?
Its relative viability is 1.29.

And the relative viability ([16]; first compound 2 µM)?
Its relative viability is 1.1.

What about the relative viability ([16]; first compound 6.325 µM) of the same compound?
Its relative viability is 0.977.

And the relative viability ([16]; first compound 20 µM)?
The relative viability was 0.957.

And the relative viability ([17]; first compound 0.2 µM)?
Its relative viability is 0.803.

And the relative viability ([17]; first compound 0.6325 µM)?
The relative viability was 0.677.

And the relative viability ([17]; first compound 2 µM)?
The relative viability was 0.695.

What about the relative viability ([17]; first compound 6.325 µM) of the same compound?
Its relative viability is 0.634.

And the relative viability ([17]; first compound 20 µM)?
Its relative viability is 0.225.

And the relative viability ([18]; first compound 0.2 µM)?
Its relative viability is 0.769.

And the relative viability ([18]; first compound 0.6325 µM)?
Its relative viability is 1.14.

What about the relative viability ([18]; first compound 2 µM) of the same compound?
Its relative viability is 0.651.

And the relative viability ([18]; first compound 6.325 µM)?
The relative viability was 0.388.

And the relative viability ([18]; first compound 20 µM)?
Its relative viability is 0.24.

And the relative viability ([19]; first compound 0.2 µM)?
The relative viability was 0.925.

And the relative viability ([19]; first compound 0.6325 µM)?
Its relative viability is 0.993.

What about the relative viability ([19]; first compound 2 µM) of the same compound?
Its relative viability is 1.

What about the relative viability ([19]; first compound 6.325 µM) of the same compound?
The relative viability was 0.825.

And the relative viability ([19]; first compound 20 µM)?
Its relative viability is 0.797.

And the relative viability ([20]; first compound 0.2 µM)?
Its relative viability is 0.776.

What about the relative viability ([20]; first compound 0.6325 µM) of the same compound?
The relative viability was 0.822.

And the relative viability ([20]; first compound 2 µM)?
Its relative viability is 0.784.

And the relative viability ([20]; first compound 6.325 µM)?
Its relative viability is 0.757.

And the relative viability ([20]; first compound 20 µM)?
Its relative viability is 0.328.

And the relative viability ([21]; first compound 0.2 µM)?
The relative viability was 0.985.

And the relative viability ([21]; first compound 0.6325 µM)?
The relative viability was 0.994.

And the relative viability ([21]; first compound 2 µM)?
Its relative viability is 0.98.

And the relative viability ([21]; first compound 6.325 µM)?
The relative viability was 0.736.

What about the relative viability ([21]; first compound 20 µM) of the same compound?
Its relative viability is 0.656.

And the relative viability ([22]; first compound 0.2 µM)?
The relative viability was 0.9.

What about the relative viability ([22]; first compound 0.6325 µM) of the same compound?
Its relative viability is 0.926.

And the relative viability ([22]; first compound 2 µM)?
The relative viability was 0.909.

And the relative viability ([22]; first compound 6.325 µM)?
The relative viability was 0.92.

What about the relative viability ([22]; first compound 20 µM) of the same compound?
The relative viability was 0.187.
